Assays:
Assay type in all cases: cell-based, human
[1] = test system: p53, MDM2 and p21 in MM1s and NCI-H929 cells; test: Western blot of p53, MDM2, p21 after miRNA or ASO transfection and Nutlin-3a; settings: 72 hr after transfection, 12 hr Nutlin-3a (10 μM); for expression of MDM2 protein: both cell lines; for level of p53 and p21: vs Scr-transfected cells, p<0.001
Method: FIG. 4A: MM1s and NCIH929 cells (pre-miRNA-192, pre-miRNA-194, pre-miRNA-215, Scr sequence-transfected) were harvested at 72 hr after transfection and 12 hr Nutlin-3a treatment (10 μM). Whole cell lysates were subjected to Western blotting using p53, MDM2, p21, and Gapdh antibodies. Densitometric analysis showing the effect of miR-194 (white bars), miR-192 (grey bars), miR-215 (black bars) compared to Scr sequence (green bars) transfected cells of endogenous p53, MDM2 and p21 in MM1s (FIG. 4B) and NCI-H929 (FIG. 4C) Nutlin-3a treated.
FIG. 4D: Immununoblot analysis showing p53, MDM2 and p21 protein expression after 48 hr of miR192, miR-194, miR-215 (pool) and Scr ASOs transfection in MM1s and NCI-H929 cells after 12 hr of treatment with 10 μM Nutlin-3a.
Samples were extracted in 15 mM Tris.Cl, pH 7.5/120 mM NaCl/25 mM KCl/2 mM EGTA/0.1 mM DTT/0.5% Triton X-100/[…] leupeptin/0.5 mM PMSF. Total protein (35 μg) from each sample was separated on a 4-20% Tris-HCl-Criterion precast gel Bio-Rad (cat#345-0032, Hercules, Calif.) and transferred to a poly(vinylidene difluoride) filter (Millipore). The filter was blocked in 5% nonfat dry milk, incubated with the specific antibody, washed, and probed with secondary antibody IgG conjugated to horseradish peroxidase (Santa Cruz Biotechnology), and developed with enhanced chemiluminescence (Amersham Pharmacia). Immunoblot analyses were performed using the following antibodies: p53 (sc-53394, Santa Cruz Biotechnology), MDM2 (sc-965, Santa Cruz Biotechnology), phospho-MDM2 (Cat#3521, Cell Signaling), c-MYC (cs-40, Santa Cruz Biotechnology), IGF-1 (sc-9013, Santa Cruz Biotechnology), IGF-1R (Cat#3027, Cell Signaling), total-Akt (Cat#9272, Cell signaling), phospho-Akt (Cat#4060, Cell Signaling), total-S6 (Cat#2217, Cell Signaling), phospho-S6 (Cat#2211, Cell Signaling), p21 (sc-817, Santa Cruz Biotechnology), α-PUMA (Cat#4976, Cell Signaling), GAPDH (Cat#2118, Cell Signaling). Filters were reprobed with enzyme-conjugated antibodies to GFP and β-actin (Santa Cruz Biotechnology).
MM cells (from MM subjects or from cell lines) non-transfected or transfected with pre- or ASOs miR-192, miR-215, miR-194 and Scr sequence as described above, were treated with MDM2 inhibitor (Nutlin3a and MI-219). Fresh CD138+ primary PCs isolated from new diagnosed MM subjects as previously described were maintained in culture for 24 hr and then treated for 24 hr with 10 μM Nutlin-3a (Cayman Chemical Company) or vehicle (DMSO). For transfected cells at 24 hrs after transfection MM cells were treated with 10 μM Nutlin-3a (Cayman Chemical Company) or DMSO vehicle only at different time points. […]

[2] = test system: KMS-28BM cells; test: Cell cycle analysis by flow cytometry (sub-G1); settings: 48 hr after transfection; Scr control ~3%
Method: FIG. 3G, FIG. 3H, FIG. 31, FIG. 3J: Flow cytometry analysis in MM1s (FIG. 3G), NCI-H929 (FIG. 3H) and KMS28BM (FIG. 31) cells (miR-192, miR-194, miR-215 and Scr transfected) at 48 hr of transfection, after first being arrested and synchronized in G2/M phase by Nocodazole for 16 hr. Apoptosis in KMS28BM was evaluated by caspase-3 activity (FIG. 3J). All experiments were performed in triplicate ±SD.
Nocodazole was (Sigma-Aldrich) was dissolved in DMSO as a stock solution of 10 mg/ml for cell cycle arrest in G2/M phase. Cells were first arrested and synchronized in G2/M phase by growth in 80 nM nocodazole for 16 hr. Cells were then washed and fresh medium added. After 6 hr, cell cycle analysis was performed by propidium iodide staining. Corresponding amounts of DMSO alone were added in control experiments. […] For DNA content analysis, cells were fixed in methanol at −20° C., washed again, rehydrated, re-suspended in PBS containing 50 μg/ml propidium iodide (PI) and 50 μg/ml RNase A, and analyzed by flow cytometry (Becton Dickinson). […] After the treatment the cells were analyzed using Caspase-Glo 3 Assay kit (Promega) according to the manufacturer's instructions. Continuous variables were expressed as mean values ± standard deviation (s.d.).

[3] = test system: MM1s cells; test: Caspase-3 activation assay with MI-219 in miRNA-transfected cells; settings: MI-219 in presence of the miRNA; p<0.001
Method: FIG. 5C: Apoptotic effect at different concentrations and time points for each miRNA transfected cells was assessed by caspase-3 activation assay.
Nocodazole was (Sigma-Aldrich) was dissolved in DMSO as a stock solution of 10 mg/ml for cell cycle arrest in G2/M phase. Cells were first arrested and synchronized in G2/M phase by growth in 80 nM nocodazole for 16 hr. Cells were then washed and fresh medium added. After 6 hr, cell cycle analysis was performed by propidium iodide staining. Corresponding amounts of DMSO alone were added in control experiments. In experiments involving transfection and MI-219 treatment, the cells were first transfected, incubated for 24 hr, and then treated with the chemotherapeutic drug for 24 hr. For DNA content analysis, cells were fixed in methanol at −20° C., washed again, rehydrated, re-suspended in PBS containing 50 μg/ml propidium iodide (PI) and 50 μg/ml RNase A, and analyzed by flow cytometry (Becton Dickinson). For detection of caspase 3 activity, KMS28BM and MM1s cells were cultured in 96-well plates and treated with Nutlin-3a. After the treatment the cells were analyzed using Caspase-Glo 3 Assay kit (Promega) according to the manufacturer's instructions. Continuous variables were expressed as mean values ± standard deviation (s.d.).

Row | Substance | expression of MDM2 protein [1] | level of p53 and p21 [1] | sub-G1 fraction (indicative of cell death) [2] | caspase-3 activation induced by MI-219 [3]
1 | miR-192: microRNA, p53-activated, down-regulated in MM; transfected as miRNA precursor (Ambion) or lentivector; SEQ ID NO:56 (CUGACCUAUGAAUUGACAGCC; listed as RNA, chemistry not given here; listed as Homo sapiens) | dramatically decreased | significantly increased | ~25% | higher caspase-3 activation
2 | miR-215: microRNA, p53-activated, down-regulated in MM; transfected as miRNA precursor (Ambion) or lentivector; SEQ ID NO:58 (AUGACCUAUGAAUUGACAGAC; listed as RNA, chemistry not given here; listed as Homo sapiens) | dramatically decreased | significantly increased | 30% | higher caspase-3 activation

— patent US20130150430A1, “Methods for Impairing the P53/HDM2 Auto-Regulatory Loop in Multiple Myeloma Development Using mIR-192, mIR-194 and mIR-215” (THE OHIO STATE UNIVERSITY, priority 2011, published 2013)
